Data published in PubChem BioAssay (NCI).
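These data come from cells grown in 96-well plates and exposed to compound for 48 hours at five concentrations. Abbreviation: GI50, concentration required for 50% inhibition of growth. TGI: total growth inhibition.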

Key:
Test in all cases: NCI-60 cell line screen, 48 h
HS 578T breast = tested on: HS 578T breast
M14 melanoma = tested on: M14 melanoma
LOX IMVI melanoma = tested on: LOX IMVI melanoma
HCT-15 colon = tested on: HCT-15 colon
COLO 205 colon = tested on: COLO 205 colon
SF-268 CNS = tested on: SF-268 CNS
MOLT-4 leukemia = tested on: MOLT-4 leukemia
OVCAR-4 ovarian = tested on: OVCAR-4 ovarian
CAKI-1 renal = tested on: CAKI-1 renal
NCI-H460 lung = tested on: NCI-H460 lung
IGROV1 ovarian = tested on: IGROV1 ovarian
A498 renal = tested on: A498 renal
UO-31 renal = tested on: UO-31 renal
HT29 colon = tested on: HT29 colon
HL-60(TB) leukemia = tested on: HL-60(TB) leukemia
A549 NSCLC = tested on: A549 NSCLC
OVCAR-8 ovarian = tested on: OVCAR-8 ovarian
786-0 renal = tested on: 786-0 renal
MDA-MB-231 breast = tested on: MDA-MB-231 breast
CCRF-CEM leukemia = tested on: CCRF-CEM leukemia
KM12 colon = tested on: KM12 colon
T-47D breast = tested on: T-47D breast
SK-MEL-5 melanoma = tested on: SK-MEL-5 melanoma
RXF 393 renal = tested on: RXF 393 renal
SK-MEL-28 melanoma = tested on: SK-MEL-28 melanoma
HOP-62 NSCLC = tested on: HOP-62 NSCLC
SF-539 CNS = tested on: SF-539 CNS
SNB-19 CNS = tested on: SNB-19 CNS
UACC-62 melanoma = tested on: UACC-62 melanoma
PC-3 prostate = tested on: PC-3 prostate
SN12C renal = tested on: SN12C renal
OVCAR-3 ovarian = tested on: OVCAR-3 ovarian
MDA-MB-435 = tested on: MDA-MB-435
SW-620 colon = tested on: SW-620 colon
HOP-92 NSCLC = tested on: HOP-92 NSCLC
SK-MEL-2 melanoma = tested on: SK-MEL-2 melanoma
SK-OV-3 ovarian = tested on: SK-OV-3 ovarian
TK-10 renal = tested on: TK-10 renal
SNB-75 CNS = tested on: SNB-75 CNS
HCC-2998 colon = tested on: HCC-2998 colon
MCF7 breast = tested on: MCF7 breast
OVCAR-5 ovarian = tested on: OVCAR-5 ovarian
EKVX NSCLC = tested on: EKVX NSCLC
UACC-257 melanoma = tested on: UACC-257 melanoma
BT-549 breast = tested on: BT-549 breast
ACHN renal = tested on: ACHN renal
U251 CNS = tested on: U251 CNS
RPMI-8226 leukemia = tested on: RPMI-8226 leukemia
K-562 leukemia = tested on: K-562 leukemia
SR leukemia = tested on: SR leukemia
DU-145 prostate = tested on: DU-145 prostate
HCT-116 colon = tested on: HCT-116 colon
SF-295 CNS = tested on: SF-295 CNS
NCI/ADR-RES ovarian = tested on: NCI/ADR-RES ovarian
MALME-3M melanoma = tested on: MALME-3M melanoma
NCI-H23 lung = tested on: NCI-H23 lung
NCI-H522 lung = tested on: NCI-H522 lung
NCI-H226 lung = tested on: NCI-H226 lung

`COc1cc(/C=C2\N=C(c3ccccc3)N(c3nc4c(Cl)cc(Cl)cc4s3)C2=O)ccc1O` was tested, and the TGI (HS 578T breast) was 57.2 µM, the TGI (M14 melanoma) was > 100 µM and the TGI (LOX IMVI melanoma) was 53.6 µM. The TGI (HCT-15 colon) was > 100 µM, the TGI (COLO 205 colon) was > 100 µM and the TGI (SF-268 CNS) was > 100 µM. The TGI (MOLT-4 leukemia) was 43.3 µM, the TGI (OVCAR-4 ovarian) was > 100 µM and the TGI (CAKI-1 renal) was > 100 µM. The TGI (NCI-H460 lung) was > 100 µM, the TGI (IGROV1 ovarian) was > 100 µM and the TGI (A498 renal) was 49 µM. For the same compound, the TGI (UO-31 renal) was 69 µM, the TGI (HT29 colon) was 78.5 µM and the TGI (HL-60(TB) leukemia) was 39.7 µM. The TGI (A549 NSCLC) was > 100 µM, the TGI (OVCAR-8 ovarian) was > 100 µM and the TGI (786-0 renal) was > 100 µM. The TGI (MDA-MB-231 breast) was > 100 µM, the TGI (CCRF-CEM leukemia) was 30.4 µM and the TGI (KM12 colon) was > 100 µM. The TGI (T-47D breast) was 72.6 µM, the TGI (SK-MEL-5 melanoma) was > 100 µM and the TGI (RXF 393 renal) was 49.1 µM. For the same compound, the TGI (SK-MEL-28 melanoma) was > 100 µM, the TGI (HOP-62 NSCLC) was > 100 µM and the TGI (SF-539 CNS) was > 100 µM. For the same compound, the TGI (SNB-19 CNS) was > 100 µM, the TGI (UACC-62 melanoma) was > 100 µM and the TGI (PC-3 prostate) was 38.3 µM. The TGI (SN12C renal) was 51.4 µM, the TGI (OVCAR-3 ovarian) was 91.9 µM and the TGI (MDA-MB-435) was > 100 µM. For the same compound, the TGI (SW-620 colon) was > 100 µM, the TGI (HOP-92 NSCLC) was 68 µM and the TGI (SK-MEL-2 melanoma) was 55.1 µM. The TGI (SK-OV-3 ovarian) was > 100 µM, the TGI (TK-10 renal) was > 100 µM and the TGI (SNB-75 CNS) was 75 µM. The TGI (HCC-2998 colon) was 37.8 µM, the TGI (MCF7 breast) was > 100 µM and the TGI (OVCAR-5 ovarian) was > 100 µM. The TGI (EKVX NSCLC) was > 100 µM, the TGI (UACC-257 melanoma) was > 100 µM and the TGI (BT-549 breast) was 77.4 µM. The TGI (ACHN renal) was 82.2 µM, the TGI (U251 CNS) was 75.4 µM and the TGI (RPMI-8226 leukemia) was 47.4 µM. For the same compound, the TGI (K-562 leukemia) was > 100 µM, the TGI (SR leukemia) was 29.6 µM and the TGI (DU-145 prostate) was > 100 µM. For the same compound, the TGI (HCT-116 colon) was 59.7 µM, the TGI (SF-295 CNS) was > 100 µM and the TGI (NCI/ADR-RES ovarian) was > 100 µM.
In the case of `O=Cc1ncc(-c2ccc(C(F)(F)F)cc2)c(NC2CCCCCC2)n1`, the GI50 (HS 578T breast) is reported as > 10 µM, the TGI (HS 578T breast) is reported as > 10 µM and the GI50 (M14 melanoma) is reported as > 10 µM. The TGI (M14 melanoma) was > 10 µM, the GI50 (LOX IMVI melanoma) was > 10 µM and the TGI (LOX IMVI melanoma) was > 10 µM. For the same compound, the GI50 (HCT-15 colon) was > 10 µM, the TGI (HCT-15 colon) was > 10 µM and the GI50 (COLO 205 colon) was > 10 µM. The TGI (COLO 205 colon) was > 10 µM, the GI50 (SF-268 CNS) was > 10 µM and the TGI (SF-268 CNS) was > 10 µM. For the same compound, the GI50 (MOLT-4 leukemia) was > 10 µM, the TGI (MOLT-4 leukemia) was > 10 µM and the GI50 (OVCAR-4 ovarian) was > 10 µM. The TGI (OVCAR-4 ovarian) was > 10 µM, the GI50 (CAKI-1 renal) was > 10 µM and the TGI (CAKI-1 renal) was > 10 µM. The GI50 (NCI-H460 lung) was > 10 µM, the TGI (NCI-H460 lung) was > 10 µM and the GI50 (IGROV1 ovarian) was > 10 µM. The TGI (IGROV1 ovarian) was > 10 µM, the GI50 (A498 renal) was > 10 µM and the TGI (A498 renal) was > 10 µM. The GI50 (MALME-3M melanoma) was > 10 µM, the TGI (MALME-3M melanoma) was > 10 µM and the GI50 (UO-31 renal) was > 10 µM. For the same compound, the TGI (UO-31 renal) was > 10 µM, the GI50 (HT29 colon) was > 10 µM and the TGI (HT29 colon) was > 10 µM. For the same compound, the GI50 (HL-60(TB) leukemia) was > 10 µM, the TGI (HL-60(TB) leukemia) was > 10 µM and the GI50 (A549 NSCLC) was > 10 µM. The TGI (A549 NSCLC) was > 10 µM, the GI50 (OVCAR-8 ovarian) was > 10 µM and the TGI (OVCAR-8 ovarian) was > 10 µM. For the same compound, the GI50 (786-0 renal) was > 10 µM, the TGI (786-0 renal) was > 10 µM and the GI50 (MDA-MB-231 breast) was > 10 µM. The TGI (MDA-MB-231 breast) was > 10 µM, the GI50 (CCRF-CEM leukemia) was > 10 µM and the TGI (CCRF-CEM leukemia) was > 10 µM. The GI50 (KM12 colon) was > 10 µM, the TGI (KM12 colon) was > 10 µM and the GI50 (T-47D breast) was > 10 µM. For the same compound, the TGI (T-47D breast) was > 10 µM, the GI50 (NCI-H23 lung) was > 10 µM and the TGI (NCI-H23 lung) was > 10 µM. For the same compound, the GI50 (SK-MEL-5 melanoma) was > 10 µM, the TGI (SK-MEL-5 melanoma) was > 10 µM and the GI50 (RXF 393 renal) was > 10 µM. For the same compound, the TGI (RXF 393 renal) was > 10 µM, the GI50 (SK-MEL-28 melanoma) was > 10 µM and the TGI (SK-MEL-28 melanoma) was > 10 µM. For the same compound, the GI50 (HOP-62 NSCLC) was > 10 µM, the TGI (HOP-62 NSCLC) was > 10 µM and the GI50 (SF-539 CNS) was > 10 µM. The TGI (SF-539 CNS) was > 10 µM, the GI50 (SNB-19 CNS) was > 10 µM and the TGI (SNB-19 CNS) was > 10 µM. The GI50 (UACC-62 melanoma) was > 10 µM, the TGI (UACC-62 melanoma) was > 10 µM and the GI50 (PC-3 prostate) was > 10 µM. The TGI (PC-3 prostate) was > 10 µM, the GI50 (SN12C renal) was > 10 µM and the TGI (SN12C renal) was > 10 µM. The GI50 (OVCAR-3 ovarian) was > 10 µM, the TGI (OVCAR-3 ovarian) was > 10 µM and the GI50 (MDA-MB-435) was > 10 µM. For the same compound, the TGI (MDA-MB-435) was > 10 µM, the GI50 (SW-620 colon) was > 10 µM and the TGI (SW-620 colon) was > 10 µM. The GI50 (HOP-92 NSCLC) was > 10 µM, the TGI (HOP-92 NSCLC) was > 10 µM and the GI50 (SK-MEL-2 melanoma) was > 10 µM. For the same compound, the TGI (SK-MEL-2 melanoma) was > 10 µM, the GI50 (SK-OV-3 ovarian) was > 10 µM and the TGI (SK-OV-3 ovarian) was > 10 µM. For the same compound, the GI50 (TK-10 renal) was > 10 µM, the TGI (TK-10 renal) was > 10 µM and the GI50 (SNB-75 CNS) was > 10 µM. For the same compound, the TGI (SNB-75 CNS) was > 10 µM, the GI50 (HCC-2998 colon) was > 10 µM and the TGI (HCC-2998 colon) was > 10 µM. The GI50 (MCF7 breast) was > 10 µM, the TGI (MCF7 breast) was > 10 µM and the GI50 (OVCAR-5 ovarian) was > 10 µM. The TGI (OVCAR-5 ovarian) was > 10 µM, the GI50 (NCI-H522 lung) was > 10 µM and the TGI (NCI-H522 lung) was > 10 µM. For the same compound, the GI50 (UACC-257 melanoma) was > 10 µM, the TGI (UACC-257 melanoma) was > 10 µM and the GI50 (BT-549 breast) was > 10 µM. For the same compound, the TGI (BT-549 breast) was > 10 µM, the GI50 (ACHN renal) was > 10 µM and the TGI (ACHN renal) was > 10 µM. For the same compound, the GI50 (U251 CNS) was > 10 µM, the TGI (U251 CNS) was > 10 µM and the GI50 (RPMI-8226 leukemia) was > 10 µM. The TGI (RPMI-8226 leukemia) was > 10 µM, the GI50 (K-562 leukemia) was > 10 µM and the TGI (K-562 leukemia) was > 10 µM. For the same compound, the GI50 (NCI-H226 lung) was > 10 µM, the TGI (NCI-H226 lung) was > 10 µM and the GI50 (SR leukemia) was 5.7 µM. For the same compound, the TGI (SR leukemia) was > 10 µM, the GI50 (DU-145 prostate) was > 10 µM and the TGI (DU-145 prostate) was > 10 µM. For the same compound, the GI50 (HCT-116 colon) was > 10 µM, the TGI (HCT-116 colon) was > 10 µM and the GI50 (SF-295 CNS) was > 10 µM. For the same compound, the TGI (SF-295 CNS) was > 10 µM, the GI50 (NCI/ADR-RES ovarian) was > 10 µM and the TGI (NCI/ADR-RES ovarian) was > 10 µM.
